Experimental data published in PMC12090182, “Repurposing of the RIPK1-Selective Benzo[1,4]oxazepin-4-one Scaffold for the Development of a Type III LIMK1/2 Inhibitor” (ACS Chemical Biology, 2025).

Key:
Assay in all cases: scanMAX KINOMEscan (Eurofins)
Format in all cases: binding
[1] = target: BMX (Homo sapiens, UniProt P51813); details: read-out: Percent Control
Text: (§1) Supplement cb5c00097_si_002.xlsx, sheet "Table S6 (Eurofins Selectivity)" | column: Percent Control

[2] = target: CAMK1 (Homo sapiens, UniProt Q14012); details: read-out: Percent Control
Chain of CAMK1 (Q14012 whole entry): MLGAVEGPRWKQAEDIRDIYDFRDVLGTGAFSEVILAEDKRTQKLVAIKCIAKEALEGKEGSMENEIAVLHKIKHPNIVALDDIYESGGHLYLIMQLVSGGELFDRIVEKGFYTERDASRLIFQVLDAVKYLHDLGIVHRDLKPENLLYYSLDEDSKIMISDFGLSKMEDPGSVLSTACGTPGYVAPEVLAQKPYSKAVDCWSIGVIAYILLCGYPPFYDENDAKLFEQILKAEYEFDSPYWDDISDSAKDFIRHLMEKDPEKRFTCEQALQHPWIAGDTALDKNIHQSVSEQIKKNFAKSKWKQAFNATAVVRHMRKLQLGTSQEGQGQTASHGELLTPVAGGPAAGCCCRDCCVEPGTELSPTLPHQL
Text: as §1

[3] = target: CDK2 (Homo sapiens, UniProt P24941); details: 1000 nM, read-out: Percent Control
Text: as §1

[4] = target: CSNK1D (Homo sapiens, UniProt P48730); details: 1000 nM, read-out: Percent Control
Text: as §1

[5] = target: EGFR (Homo sapiens, UniProt P00533); details: read-out: Percent Control
Chain of EGFR (P00533 25-1210): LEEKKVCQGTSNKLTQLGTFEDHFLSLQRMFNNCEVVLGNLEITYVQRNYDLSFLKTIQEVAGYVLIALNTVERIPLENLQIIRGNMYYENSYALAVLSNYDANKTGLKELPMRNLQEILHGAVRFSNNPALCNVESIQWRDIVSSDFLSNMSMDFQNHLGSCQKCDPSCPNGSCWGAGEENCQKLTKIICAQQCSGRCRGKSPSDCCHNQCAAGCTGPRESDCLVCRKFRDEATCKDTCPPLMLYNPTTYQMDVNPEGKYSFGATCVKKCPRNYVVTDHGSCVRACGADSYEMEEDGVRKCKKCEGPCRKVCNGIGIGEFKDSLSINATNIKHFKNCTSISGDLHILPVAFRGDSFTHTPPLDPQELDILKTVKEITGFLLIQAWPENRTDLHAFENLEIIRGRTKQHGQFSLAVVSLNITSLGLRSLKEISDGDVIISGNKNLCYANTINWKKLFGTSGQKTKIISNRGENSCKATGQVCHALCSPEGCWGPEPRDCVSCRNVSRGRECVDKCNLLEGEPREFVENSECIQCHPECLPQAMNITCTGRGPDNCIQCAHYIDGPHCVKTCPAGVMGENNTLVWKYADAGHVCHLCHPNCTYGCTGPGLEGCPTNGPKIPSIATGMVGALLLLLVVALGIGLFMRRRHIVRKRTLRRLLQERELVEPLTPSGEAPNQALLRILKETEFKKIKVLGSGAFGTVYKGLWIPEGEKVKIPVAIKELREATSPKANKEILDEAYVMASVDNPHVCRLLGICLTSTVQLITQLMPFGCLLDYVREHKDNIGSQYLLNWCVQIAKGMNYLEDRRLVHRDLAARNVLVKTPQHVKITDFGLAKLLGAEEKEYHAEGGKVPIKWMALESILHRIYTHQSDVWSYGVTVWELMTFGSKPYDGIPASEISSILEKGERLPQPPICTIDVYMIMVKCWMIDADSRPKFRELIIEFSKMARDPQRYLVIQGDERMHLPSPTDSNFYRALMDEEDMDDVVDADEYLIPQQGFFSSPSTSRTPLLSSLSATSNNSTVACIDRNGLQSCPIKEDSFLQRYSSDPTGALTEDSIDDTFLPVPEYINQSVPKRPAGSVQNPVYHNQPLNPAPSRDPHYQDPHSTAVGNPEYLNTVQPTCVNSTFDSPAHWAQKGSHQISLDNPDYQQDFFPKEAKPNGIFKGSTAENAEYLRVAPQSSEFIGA
Text: as §1

[6] = target: ERBB4 (Homo sapiens, UniProt Q15303); details: 1000 nM, read-out: Percent Control
Text: as §1

[7] = target: ERK4 (Homo sapiens, UniProt P31152); details: 1000 nM, read-out: Percent Control
Text: as §1

[8] = system: FLT3(ITD); details: 1000 nM
Text: as §1

[9] = target: FLT4 (Homo sapiens, UniProt P35916); details: 1000 nM, read-out: Percent Control
Text: as §1

[10] = target: GRK1 (Homo sapiens, UniProt Q15835); details: read-out: Percent Control
Chain of GRK1 (Q15835 whole entry): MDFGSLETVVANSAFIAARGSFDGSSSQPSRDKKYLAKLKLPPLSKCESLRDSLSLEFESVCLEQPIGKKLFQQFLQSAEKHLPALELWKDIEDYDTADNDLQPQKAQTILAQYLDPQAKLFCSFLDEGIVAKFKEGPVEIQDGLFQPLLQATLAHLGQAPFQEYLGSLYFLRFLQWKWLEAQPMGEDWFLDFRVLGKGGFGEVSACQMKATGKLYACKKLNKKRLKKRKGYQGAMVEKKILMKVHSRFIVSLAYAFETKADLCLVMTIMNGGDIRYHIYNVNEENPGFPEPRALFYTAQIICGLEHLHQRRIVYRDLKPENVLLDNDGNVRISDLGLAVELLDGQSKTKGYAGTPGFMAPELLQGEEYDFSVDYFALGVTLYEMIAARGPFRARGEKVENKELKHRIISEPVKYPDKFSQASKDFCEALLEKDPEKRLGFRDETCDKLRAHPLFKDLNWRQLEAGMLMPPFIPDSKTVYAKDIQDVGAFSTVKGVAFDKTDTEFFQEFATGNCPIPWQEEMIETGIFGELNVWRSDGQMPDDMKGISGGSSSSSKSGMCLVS
Text: as §1

[11] = target: GSK3A (Homo sapiens, UniProt P49840); details: 1000 nM, read-out: Percent Control
Text: as §1

[12] = target: IKK-beta (Homo sapiens, UniProt O14920); details: read-out: Percent Control
Chain of IKK-beta (O14920 whole entry): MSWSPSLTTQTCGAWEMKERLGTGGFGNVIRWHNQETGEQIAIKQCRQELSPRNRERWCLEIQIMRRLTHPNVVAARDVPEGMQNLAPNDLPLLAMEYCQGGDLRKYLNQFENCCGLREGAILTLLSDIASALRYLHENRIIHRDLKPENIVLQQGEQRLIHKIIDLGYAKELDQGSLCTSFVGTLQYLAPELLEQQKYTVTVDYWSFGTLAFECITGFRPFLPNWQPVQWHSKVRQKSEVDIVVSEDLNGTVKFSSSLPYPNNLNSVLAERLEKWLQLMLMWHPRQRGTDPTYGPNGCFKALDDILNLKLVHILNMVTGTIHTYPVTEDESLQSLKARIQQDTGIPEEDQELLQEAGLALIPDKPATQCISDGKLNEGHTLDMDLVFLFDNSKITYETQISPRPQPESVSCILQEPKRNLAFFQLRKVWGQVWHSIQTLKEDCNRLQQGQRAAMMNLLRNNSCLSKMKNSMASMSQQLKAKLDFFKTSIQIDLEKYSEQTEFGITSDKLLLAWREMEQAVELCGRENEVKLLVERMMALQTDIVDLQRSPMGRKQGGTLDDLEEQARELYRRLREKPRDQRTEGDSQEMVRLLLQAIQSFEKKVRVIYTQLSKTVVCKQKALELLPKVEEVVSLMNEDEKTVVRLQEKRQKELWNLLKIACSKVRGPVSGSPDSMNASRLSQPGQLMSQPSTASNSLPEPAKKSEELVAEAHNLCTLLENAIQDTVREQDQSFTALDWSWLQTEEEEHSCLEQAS
Text: as §1

[13] = target: JAK3(JH1domain-catalytic) (Homo sapiens, UniProt P52333); details: 1000 nM, read-out: Percent Control
Text: as §1

[14] = target: JNK3 (Homo sapiens, UniProt P53779); details: 1000 nM, read-out: Percent Control
Text: as §1

[15] = target: LOK (Homo sapiens, UniProt O94804); details: 1000 nM, read-out: Percent Control
Text: as §1

[16] = target: MARK2 (Homo sapiens, UniProt Q7KZI7); details: 1000 nM, read-out: Percent Control
Text: as §1

[17] = target: MET (Homo sapiens, UniProt P08581); details: 1000 nM, read-out: Percent Control
Text: as §1

[18] = target: MKK7 (Homo sapiens, UniProt O14733); details: read-out: Percent Control
Chain of MKK7 (O14733 whole entry): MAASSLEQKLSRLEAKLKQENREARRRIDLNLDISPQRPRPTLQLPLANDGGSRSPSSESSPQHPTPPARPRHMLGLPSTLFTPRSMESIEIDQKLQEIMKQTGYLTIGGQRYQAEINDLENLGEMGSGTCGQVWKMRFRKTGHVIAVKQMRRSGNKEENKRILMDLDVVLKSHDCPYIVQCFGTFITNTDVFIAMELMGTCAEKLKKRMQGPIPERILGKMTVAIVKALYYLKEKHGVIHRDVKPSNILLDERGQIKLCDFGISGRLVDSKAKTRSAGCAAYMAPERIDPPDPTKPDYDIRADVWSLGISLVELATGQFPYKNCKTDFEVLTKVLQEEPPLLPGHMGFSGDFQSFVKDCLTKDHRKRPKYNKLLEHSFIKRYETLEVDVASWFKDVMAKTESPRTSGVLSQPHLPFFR
Text: as §1

[19] = target: MKNK2 (Homo sapiens, UniProt Q9HBH9); details: compound concentration 100 nM; Entrez MKNK2; read-out: Percent Control
Chain of MKNK2 (Q9HBH9 whole entry): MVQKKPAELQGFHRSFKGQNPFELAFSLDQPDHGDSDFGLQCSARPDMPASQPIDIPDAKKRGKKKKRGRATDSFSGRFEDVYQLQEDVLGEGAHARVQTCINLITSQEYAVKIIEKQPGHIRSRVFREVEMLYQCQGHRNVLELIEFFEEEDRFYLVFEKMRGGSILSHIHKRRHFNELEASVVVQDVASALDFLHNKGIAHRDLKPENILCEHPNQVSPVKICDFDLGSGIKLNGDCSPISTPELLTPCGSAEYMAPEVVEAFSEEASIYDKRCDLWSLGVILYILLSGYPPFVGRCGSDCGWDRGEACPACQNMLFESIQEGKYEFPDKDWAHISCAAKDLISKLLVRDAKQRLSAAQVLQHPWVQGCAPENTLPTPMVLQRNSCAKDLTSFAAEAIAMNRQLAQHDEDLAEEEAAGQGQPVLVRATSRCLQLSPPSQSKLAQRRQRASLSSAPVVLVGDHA
Text: as §1

[20] = target: MST4 (Homo sapiens, UniProt Q9P289); details: 1000 nM, read-out: Percent Control
Text: as §1

[21] = target: MYLK4 (Homo sapiens, UniProt Q86YV6); details: compound concentration 100 nM; Entrez MYLK4; read-out: Percent Control
Text: as §1

[22] = target: PKAC-alpha (Homo sapiens, UniProt P17612); details: compound concentration 100 nM; Entrez PRKACA; read-out: Percent Control
Text: as §1

[23] = target: PKNB(M.tuberculosis) (Mycobacterium tuberculosis, UniProt P9WI81); details: 1000 nM, read-out: Percent Control
Text: as §1

[24] = target: PRKCD (Homo sapiens, UniProt Q05655); details: compound concentration 100 nM; Entrez PRKCD; read-out: Percent Control
Text: as §1

[25] = target: PRKCE (Homo sapiens, UniProt Q02156); details: compound concentration 100 nM; Entrez PRKCE; read-out: Percent Control
Text: as §1

[26] = target: PYK2 (Homo sapiens, UniProt Q14289); details: 1000 nM, read-out: Percent Control
Text: as §1

[27] = target: RAF1 (Homo sapiens, UniProt P04049); details: compound concentration 100 nM; Entrez RAF1; read-out: Percent Control
Text: as §1

[28] = target: SGK2 (Homo sapiens, UniProt Q9HBY8); details: 1000 nM, read-out: Percent Control
Chain of SGK2 (Q9HBY8 whole entry): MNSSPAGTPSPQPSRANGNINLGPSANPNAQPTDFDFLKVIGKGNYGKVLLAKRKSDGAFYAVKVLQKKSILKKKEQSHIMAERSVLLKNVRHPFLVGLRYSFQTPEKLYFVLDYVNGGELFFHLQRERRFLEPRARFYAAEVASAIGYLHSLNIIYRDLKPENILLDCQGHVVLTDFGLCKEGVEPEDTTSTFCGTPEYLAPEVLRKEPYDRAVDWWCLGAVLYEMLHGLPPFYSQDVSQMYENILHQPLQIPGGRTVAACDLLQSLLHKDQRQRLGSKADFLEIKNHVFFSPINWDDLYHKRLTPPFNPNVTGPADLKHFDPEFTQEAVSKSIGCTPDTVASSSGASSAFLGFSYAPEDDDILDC
Text: as §1

[29] = target: SGK3 (Homo sapiens, UniProt Q96BR1); details: 1000 nM, read-out: Percent Control
Text: as §1

[30] = target: SIK2 (Homo sapiens, UniProt Q9H0K1); details: compound concentration 100 nM; Entrez SIK2; read-out: Percent Control
Text: as §1

[31] = target: TNNI3K (Homo sapiens, UniProt Q59H18); details: 1000 nM, read-out: Percent Control
Text: as §1

[32] = target: TRPM6 (Homo sapiens, UniProt Q9BX84); details: compound concentration 100 nM; Entrez TRPM6; read-out: Percent Control
Text: as §1

[33] = target: TSSK3 (Homo sapiens, UniProt Q96PN8); details: compound concentration 100 nM; Entrez TSSK3; read-out: Percent Control
Text: as §1

[34] = target: ULK2 (Homo sapiens, UniProt Q8IYT8); details: compound concentration 100 nM; Entrez ULK2; read-out: Percent Control
Text: as §1

[35] = target: YSK4 (Homo sapiens, UniProt Q56UN5); details: compound concentration 100 nM; Entrez MAP3K19; read-out: Percent Control
Text: as §1

[36] = target: p38-beta (Homo sapiens, UniProt Q15759); details: 1000 nM, read-out: Percent Control
Text: as §1

Chain of BMX (P51813 whole entry): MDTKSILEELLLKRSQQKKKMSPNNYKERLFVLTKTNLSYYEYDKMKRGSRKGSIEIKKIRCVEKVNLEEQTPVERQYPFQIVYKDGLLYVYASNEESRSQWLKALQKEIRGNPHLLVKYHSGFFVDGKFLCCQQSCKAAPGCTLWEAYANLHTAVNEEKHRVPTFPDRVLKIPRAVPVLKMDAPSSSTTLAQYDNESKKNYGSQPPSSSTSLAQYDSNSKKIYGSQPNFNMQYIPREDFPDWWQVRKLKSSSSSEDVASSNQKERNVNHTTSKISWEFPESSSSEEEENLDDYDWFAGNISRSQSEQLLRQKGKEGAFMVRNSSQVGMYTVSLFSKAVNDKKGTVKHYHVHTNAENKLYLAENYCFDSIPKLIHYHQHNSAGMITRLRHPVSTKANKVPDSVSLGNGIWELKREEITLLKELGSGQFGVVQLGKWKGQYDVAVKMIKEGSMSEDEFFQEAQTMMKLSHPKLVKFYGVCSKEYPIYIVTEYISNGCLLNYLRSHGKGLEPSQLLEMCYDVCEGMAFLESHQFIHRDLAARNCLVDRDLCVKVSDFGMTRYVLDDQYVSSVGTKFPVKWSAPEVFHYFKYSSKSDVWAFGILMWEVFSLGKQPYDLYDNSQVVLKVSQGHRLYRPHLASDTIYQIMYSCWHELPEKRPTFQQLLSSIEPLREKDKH

CN1C(=O)[C@@H](N2CCc3c(nn(Cc4ccccc4)c3C(N)=O)C2=O)COc2cc(Cl)ccc21 [Compound 10, (S)-2-benzyl-6-(8-chloro-5-methyl-4-oxo-2,3,4,5-tetrahydrobenzo[b][1,4]oxazepin-3-yl)-7-oxo-4,5,6,7-tetrahydro-2H-pyrazolo[3,4-c]pyridine-3-carboxamide]
remaining binding at 1 µM ([1]; 1000 nM): 100% | remaining binding at 0.1 µM ([1]; compound concentration 100 nM, Entrez BMX): 100% | remaining binding at 1 µM ([2]; 1000 nM): 100% | remaining binding at 0.1 µM ([2]; compound concentration 100 nM, Entrez CAMK1): 90% | remaining binding at 1 µM [3]: 92% | remaining binding at 1 µM [4]: 87% | remaining binding at 1 µM ([5]; 1000 nM): 100% | remaining binding at 0.1 µM ([5]; compound concentration 100 nM, Entrez EGFR): 96% | remaining binding at 1 µM [6]: 87% | remaining binding at 1 µM [7]: 92% | Percent Control [8]: 77% | remaining binding at 1 µM [9]: 92% | remaining binding at 1 µM ([10]; 1000 nM): 100% | remaining binding at 0.1 µM ([10]; compound concentration 100 nM, Entrez GRK1): 100% | remaining binding at 1 µM [11]: 98% | remaining binding at 1 µM ([12]; 1000 nM): 100% | remaining binding at 0.1 µM ([12]; compound concentration 100 nM, Entrez IKBKB): 97% | remaining binding at 1 µM [13]: 85% | remaining binding at 1 µM [14]: 95% | remaining binding at 1 µM [15]: 97% | remaining binding at 1 µM [16]: 81% | remaining binding at 1 µM [17]: 94% | remaining binding at 1 µM ([18]; 1000 nM): 99% | remaining binding at 0.1 µM ([18]; compound concentration 100 nM, Entrez MAP2K7): 91% | remaining binding at 0.1 µM [19]: 94% | remaining binding at 1 µM [20]: 92% | remaining binding at 0.1 µM [21]: 92% | remaining binding at 0.1 µM [22]: 90% | remaining binding at 1 µM [23]: 83% | remaining binding at 0.1 µM [24]: 83% | remaining binding at 0.1 µM [25]: 91% | remaining binding at 1 µM [26]: 82% | remaining binding at 0.1 µM [27]: 100% | remaining binding at 1 µM [28]: 95% | remaining binding at 1 µM [29]: 90% | remaining binding at 0.1 µM [30]: 71% | remaining binding at 1 µM [31]: 80% | remaining binding at 0.1 µM [32]: 100% | remaining binding at 0.1 µM [33]: 100% | remaining binding at 0.1 µM [34]: 80% | remaining binding at 0.1 µM [35]: 88% | remaining binding at 1 µM [36]: 97%
